Assay [1] deals with T1, Abscisic acid 8'-hydroxylase 3 (Arabidopsis thaliana, UniProt Q9FH76).
T1 sequence (Q9FH76 whole entry): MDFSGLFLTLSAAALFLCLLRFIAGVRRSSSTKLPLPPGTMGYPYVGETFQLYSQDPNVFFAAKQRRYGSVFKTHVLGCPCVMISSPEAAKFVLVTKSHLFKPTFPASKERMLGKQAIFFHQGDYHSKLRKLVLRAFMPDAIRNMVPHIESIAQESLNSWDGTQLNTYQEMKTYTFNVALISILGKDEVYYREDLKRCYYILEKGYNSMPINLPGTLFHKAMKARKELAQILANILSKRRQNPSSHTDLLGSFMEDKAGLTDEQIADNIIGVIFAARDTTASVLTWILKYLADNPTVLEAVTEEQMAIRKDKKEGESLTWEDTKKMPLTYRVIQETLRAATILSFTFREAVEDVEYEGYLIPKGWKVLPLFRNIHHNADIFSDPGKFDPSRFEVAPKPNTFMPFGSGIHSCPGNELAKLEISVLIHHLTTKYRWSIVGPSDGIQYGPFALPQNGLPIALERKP
Briefly: Inhibitory activity against recombinant CYP707A3 in Arabidopsis.

For assay [2], the target named is T1, Abscisic acid 8'-hydroxylase 3. In words: Inhibitory activity against recombinant CYP707A3 in Arabidopsis at 50 uM.
The test system of assay [3] is Lactuca sativa. Briefly: Effect on seed germination in lettuce (Lactuca sativa L.Cv Grand Rapids). It counts as functional, organism-based.
For assay [4], the system named is Oryza sativa. Briefly: Effect on seed elongation in Rice (Oryza sativa L.Cv.Nipponbare). The class given is functional, organism-based.

Data on 4 molecules can be found in ChEMBL document CHEMBL1141968, “A lead compound for the development of ABA 8'-hydroxylase inhibitors” (Bioorg Med Chem Lett, 2005).

As a reminder, the Ki is a measure of affinity in units of concentration, obtained from inhibition or displacement. Broadly, the inhibition is the percentage by which the read-out fell short of the control. As a reminder, the IC50 is the concentration at which inhibition is half-maximal.

SMILES strings stand for the structures.

Consider `CC1=CC(=O)C[C@](C)(C(F)F)[C@@]1(O)/C=C/C(C)=C\C(=O)O`, for which the Ki in assay [1] turned out to be 170 nM.

Consider `C[C@H]1CCCC(C)(C)[C@@]1(O)/C=C/C=C\C(=O)O` (racemic), for which the inhibition at 50 µM in assay [2] was found to be 90.9%. Besides, the half-maximal inhibitory concentration (IC50) in assay [3] was above 300000 nM; in assay [4], above 300000 nM; in assay [1] it was 910 nM. Also, the Ki in assay [1] was 400 nM.

As for `C[C@H]1CCC[C@](C)(C(F)F)[C@@]1(O)/C=C/C=C\C(=O)O` (racemic), the inhibition at 50 µM in assay [2] is 94%. Further, the 50% inhibitory concentration (IC50) in assay [3] was 150000 nM; in assay [4], above 300000 nM; in assay [1] it was 630 nM. In addition, in assay [1], the inhibitory constant (Ki) came out at 410 nM.

For `CC1=CC(=O)CC(C)(C)[C@@]1(O)/C=C/C(C)=C\C(=O)O` [(+)-ABSCISIC ACID], the figures for the IC50 in assay [3] and in assay [4] were 12000 nM and 2000 nM, respectively.
